Assay results taken from patent US20060252699A1, “Method for lowering serum homocysteine” (priority 2004, published 2006).
“And” between values parts separate entries of the source, which are not always exact repeats. Equal entries are not always repeated.

Columns and labels:
serum homocysteine = assay: L-isoleucine therapy for 10 weeks in postmenopausal women: serum homocysteine; assay type: in vivo, human
Protocol: L-isoleucine therapy (3-5 grams/day divided into two doses per day) was administered to 17 postmenopausal women for 10 weeks. The L-isoleucine therapy was associated with an 11% average reduction in serum homocysteine levels among 14 post menopausal woman experiencing hot flashes.

[1] = test system: methylmalonyl CoA mutase (MCM); conditions: brain astrocytes, in vitro; cited from earlier work

## CC[C@H](C)[C@H](N)C(=O)O [L-isoleucine]
Serum homocysteine; among 14 post menopausal women experiencing hot flashes, 10 weeks
  average reduction in serum homocysteine levels: 11%
Serum homocysteine; in 2 participants
  reduction in serum homocysteine: > 30%
Serum homocysteine; in 5 participants
  reduction in serum homocysteine: > 20%
Serum homocysteine; individual participants, 10 week values (l), L-isoleucine 3-5 grams/day divided into two doses
  homocysteine: 9.8 umol/L and 4.8 umol/L and 7 umol/L (2×) and 7.1 umol/L and 8.7 umol/L and 7.9 umol/L and 6.1 umol/L and 10.8 umol/L and 8.3 umol/L (2×) and 5.1 umol/L and 6.6 umol/L and 6.7 umol/L
Serum homocysteine; individual participants, 10 week vs baseline, given as fraction
  % reduction (homocysteine): 0.3043 and 0.2473 and 0.01389 and 0 and 0.1319 and 0.04688 and 0.01408 and 0.009174 and −0.2388 and 0.03488 and 0.1774 and 0.2235 and 0.3021 and 0.2632
[1]
  upregulation of the expression of MCM message: 4 fold

## CCC(=O)SCCNC(=O)CCNC(=O)[C@H](O)C(C)(C)COP(=O)(O)OP(=O)(O)OC[C@H]1O[C@@H](n2cnc3c(N)ncnc32)[C@H](O)[C@@H]1OP(=O)(O)O [propionyl CoA]
[1]
  upregulation of the expression of MCM message: 4 fold

## CC(C)[C@H](N)C(=O)O [valine]
[1]
  upregulation of the expression of MCM message: 4 fold
